The results in this text go back to patent US10544132B2, “Isoindolinone inhibitors of the MDM2-p53 interaction having anticancer activity” (ASTEX THERAPEUTICS LIMITED, priority 2015, dated 2020).

One assay has as its system SN40R2 cells. As to the kind of experiment: SN40R2 growth inhibition, sulphorhodamine B (SRB) method (Protocol A). The following applies: 72 h, read-out: SN40R2 IC50 (μM) (Protocol A).
The target of a further assay is MDM2-p53 interaction (Homo sapiens (Human), UniProt Q00987). As to the kind of experiment: MDM2-p53 interaction 96-well plate binding assay (ELISA).
MDM2-p53 interaction, sequence (Q00987 whole entry): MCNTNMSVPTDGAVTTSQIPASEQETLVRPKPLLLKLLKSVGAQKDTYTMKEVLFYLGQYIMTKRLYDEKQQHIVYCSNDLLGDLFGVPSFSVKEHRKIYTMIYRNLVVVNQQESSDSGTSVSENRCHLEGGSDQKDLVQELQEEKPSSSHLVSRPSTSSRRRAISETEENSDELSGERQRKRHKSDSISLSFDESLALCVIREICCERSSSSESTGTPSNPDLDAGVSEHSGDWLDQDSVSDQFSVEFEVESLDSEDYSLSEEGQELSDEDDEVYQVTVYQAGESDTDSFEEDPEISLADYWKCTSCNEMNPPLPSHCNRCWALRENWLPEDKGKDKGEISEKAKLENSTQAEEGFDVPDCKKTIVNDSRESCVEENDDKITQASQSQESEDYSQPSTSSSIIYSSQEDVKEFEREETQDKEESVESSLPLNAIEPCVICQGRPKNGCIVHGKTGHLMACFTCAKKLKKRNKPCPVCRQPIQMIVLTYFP
A further assay has as its system SJSA-1 cells. As to the kind of experiment: SJSA-1 growth inhibition, sulphorhodamine B (SRB) method (Protocol A). The following applies: Homo sapiens, SJSA-1, 72 h, read-out: SJSA-1 IC50 (μM) (Protocol A).

As for `CC(C)(O)c1cc(F)c2c(c1)C(=O)N(Cc1ccc(Cl)cc1)[C@@]2(OCC1(CO)CC1)c1ccc(Cl)cc1` [Example 2, (3R)-3-(4-chlorophenyl)-2-[(4-chlorophenyl)methyl]-4-fluoro-3-{[1-(hydroxymethyl)cyclopropyl]methoxy}-6-(2-hydroxypropan-2-yl)-2,3-dihydro-1H-isoindol-1-one], the IC50 in the assay on SN40R2 cells turned out to be 17 µM.
For `[2H]C([2H])(O)C1(C([2H])([2H])O[C@]2(c3ccc(Cl)cc3)c3ccc(C(C)(C)O)cc3C(=O)N2Cc2ccc(Cl)cc2S(C)(=O)=O)CC1` [Example 36, (3R)-2-[(4-chloro-2-methanesulfonylphenyl)methyl]-3-(4-chlorophenyl)-3-({1-[hydroxy(^2H2)methyl]cyclopropyl}(^2H2)methoxy)-6-(2-hydroxypropan-2-yl)-2,3-dihydro-1H-isoindol-1-one], the figures for the IC50 on MDM2-p53 interaction, in the assay on SN40R2 cells and in the assay with SJSA-1 cells were 0.0019 µM, 17 µM and 0.078 µM, respectively.
